Tested on: HCT 116 cells
Assay: CellTiter-Glo assay in HCT 116 cells (cell viability)
Type: cell-based
Conditions: 120 h; HCT 116 human colon carcinoma cells, 5 days incubation, CellTiter-Glo luminescence
Experimental: The CellTiter-Glo™ Luminescent Cell Viability Assay (Promega) is a homogeneous method of determining the number of viable cells in culture based on quantitation of the ATP present, which signals the presence of metabolically active cells.
HCT 116 cells (human colon carcinoma, ATCC-No. CCl-247) were cultivated in RPMI 1640 medium with GlutaMAX™ I (Invitrogen, Cat-No. 61870-010), 2,5% Fetal Calf Serum (FCS, Sigma Cat-No. F4135 (FBS)); 100 Units/ml penicillin/100 μg/ml streptomycin (=Pen/Strep from Invitrogen Cat. No. 15140). For the assay the cells were seeded in 384 well plates, 1000 cells per well, in the same medium. The next day the test compounds were added in various concentrations ranging from 30 μM to 0.0015 μM (10 concentrations, 1:3 diluted). After 5 days the CellTiter-Glo™ assay was done according to the instructions of the manufacturer (CellTiter-Glo™ Luminescent Cell Viability Assay, from Promega). In brief: the cell-plate was equilibrated to room temperature for approximately 30 minutes and than the CellTiter-Glo™ reagent was added. The contents were carefully mixed for 15 minutes to induce cell lysis. After 45 minutes the luminescent signal was measured in Victor 2, (scanning multiwell spectrophotometer, Wallac).
1st. Day: • Medium: RPMI 1640 with GlutaMAX™ I (Invitrogen, Cat-Nr. 61870), 5% FCS (Sigma Cat.-No. F4135), Pen/Strep (Invitrogen, Cat No. 15140). • HCT116 (ATCC-No. CCl-247): 1000 cells in 60 μl per well of 384 well plate (Greiner 781098, μClear-plate white) • After seeding incubate plates 24 h at 37° C., 5% CO2 2nd. Day: Induction (Treatment with Compounds, 10 Concentrations):
In order to achieve a final concentration of 30 μM as highest concentration 3.5 μl of 10 mM compound stock solution were added directly to 163 μl media. Then step e) of the dilution procedure described below, was followed.
In order to achieve the second highest to the lowest concentrations, a serial dilution with dilution steps of 1:3 was followed according to the procedure (a-e) as described here below: • a) for the second highest concentration add 10 μl of 10 mM stock solution of compound to 20 μl dimethylsulfoxide (DMSO) • b) dilute 8×1:3 (always 10 μl to 20 μl DMSO) in this DMSO dilution row (results in 9 wells with concentrations from 3333.3 μM to 0.51 μM) • c) dilute each concentration 1:47.6 (3.5 μl compound dilution to 163 μl media) • e) add 10 μl of every concentration to 60 μl media in the cell plate resulting in final concentration of DMSO: 0.3% in every well and resulting in 10 final concentration of compounds ranging from 30 μM to 0.0015 μM. • Each compound is tested in triplicate. • Incubate 120 h (5 days) at 37° C., 5% CO2
• Add 30 μl CellTiter-Glo™ Reagent (prepared from CellTiter-Glo™ Buffer and CellTiter-Glo™ Substrate (lyophilized) purchased from Promega) per well, • shake 15 minutes at room temperature • incubate further 45 minutes at room temperature without shaking
• Victor 2 scanning multiwell spectrophotometer (Wallac), Luminescence mode (0.5 sec/read, 477 nm) • Determine IC50 using a non-linear curve fit (XLfit software (ID Business Solution Ltd., Guilford, Surrey, UK))

SMILES | IC50
CCN1C(=O)C(C)(C)c2cc3nc(-c4n[nH]c5cc(-c6nc[nH]n6)ccc45)[nH]c3cc21 [Example 2, 5-Ethyl-7,7-dimethyl-2-[6-(1H-[1,2,4]triazol-3-yl)-1H-indazol-3-yl]-5,7-dihydro-3H-imidazo[4,5-f]indol-6-one] | 25 to 1500 nM
CCN1C(=O)C(C)(C)c2cc3nc(-c4n[nH]c5cc(/C=C/c6ccccc6)ccc45)[nH]c3cc21 [Example 5, 5-Ethyl-7,7-dimethyl-2-[6-((E)-styryl)-1H-indazol-3-yl]-5,7-dihydro-3H-imidazo[4,5-f]indol-6-one] | 576 nM
CCN1C(=O)C(C)(C)c2cc3nc(-c4n[nH]c5cc(-c6cnn(C)c6)ccc45)[nH]c3cc21 [Example 7, 5-Ethyl-7,7-dimethyl-2-[6-(1-methyl-1H-pyrazol-4-yl)-1H-indazol-3-yl]-5,7-dihydro-3H-imidazo[4,5-f]indol-6-one] | 25 to 1500 nM
CCN1C(=O)C(C)(C)c2cc3nc(-c4n[nH]c5cc(-c6cccnc6)ccc45)[nH]c3cc21 [Example 8, 5-Ethyl-7,7-dimethyl-2-(6-pyridin-3-yl-1H-indazol-3-yl)-5,7-dihydro-3H-imidazo[4,5-f]indol-6-one] | 161 nM
CCN1C(=O)C(C)(C)c2cc3nc(-c4n[nH]c5cc(/C=C/c6ccc(-c7ccccc7)cc6)ccc45)[nH]c3cc21 [Example 9, 2-[6-((E)-2-Biphenyl-4-yl-vinyl)-1H-indazol-3-yl]-5-ethyl-7,7-dimethyl-5,7-dihydro-3H-imidazo[4,5-f]indol-6-one] | 25 to 1500 nM
CCN1C(=O)C(C)(C)c2cc3nc(-c4n[nH]c5cc(/C=C/c6ccc(OC)cc6)ccc45)[nH]c3cc21 [Example 10, 5-Ethyl-2-{6-[(E)-2-(4-methoxy-phenyl)-vinyl]-1H-indazol-3-yl}-7,7-dimethyl-5,7-dihydro-3H-imidazo[4,5-f]indol-6-one] | 25 to 1500 nM
CCN1C(=O)C(C)(C)c2cc3nc(-c4n[nH]c5cc(-c6ccc(N(C)C)cc6)ccc45)[nH]c3cc21 [Example 12, 2-[6-(4-Dimethylamino-phenyl)-1H-indazol-3-yl]-5-ethyl-7,7-dimethyl-5,7-dihydro-3H-imidazo[4,5-f]indol-6-one] | 25 to 1500 nM
CCN1C(=O)C(C)(C)c2cc3nc(-c4n[nH]c5cc(-c6ccc(C(C)=O)cc6)ccc45)[nH]c3cc21 [Example 13, 2-[6-(4-Acetyl-phenyl)-1H-indazol-3-yl]-5-ethyl-7,7-dimethyl-5,7-dihydro-3H-imidazo[4,5-f]indol-6-one] | 328 nM
CCN1C(=O)C(C)(C)c2cc3nc(-c4n[nH]c5cc(-c6ccc(OC)nc6)ccc45)[nH]c3cc21 [Example 14, 5-Ethyl-2-[6-(6-methoxy-pyridin-3-yl)-1H-indazol-3-yl]-7,7-dimethyl-5,7-dihydro-3H-imidazo[4,5-f]indol-6-one] | 25 to 1500 nM
CCN1C(=O)C(C)(C)c2cc3nc(-c4n[nH]c5cc(-c6cccs6)ccc45)[nH]c3cc21 [Example 16, 5-Ethyl-7,7-dimethyl-2-(6-thiophen-2-yl-1H-indazol-3-yl)-5,7-dihydro-3H-imidazo[4,5-f]indol-6-one] | 25 to 1500 nM
CCN1C(=O)C(C)(C)c2cc3nc(-c4n[nH]c5cc(/C=C/c6ccc(Cl)cc6)ccc45)[nH]c3cc21 [Example 18, 2-{6-[(E)-2-(4-Chloro-phenyl)-vinyl]-1H-indazol-3-yl}-5-ethyl-7,7-dimethyl-5,7-dihydro-3H-imidazo[4,5-f]indol-6-one] | 25 to 1500 nM
CCN1C(=O)C(C)(C)c2cc3nc(-c4n[nH]c5cc(-c6ccc7c(c6)OCO7)ccc45)[nH]c3cc21 [Example 20, 2-(6-Benzo[1,3]dioxol-5-yl-1H-indazol-3-yl)-5-ethyl-7,7-dimethyl-5,7-dihydro-3H-imidazo[4,5-f]indol-6-one] | 562 nM
CCN1C(=O)C(C)(C)c2cc3nc(-c4n[nH]c5cc(-c6cccc(N(C)C)c6)ccc45)[nH]c3cc21 [Example 21, 2-[6-(3-Dimethylamino-phenyl)-1H-indazol-3-yl]-5-ethyl-7,7-dimethyl-5,7-dihydro-3H-imidazo[4,5-f]indol-6-one] | 25 to 1500 nM
CCN1C(=O)C(C)(C)c2cc3nc(-c4n[nH]c5cc(-c6cccc([N+](=O)[O-])c6)ccc45)[nH]c3cc21 [Example 22, 5-Ethyl-7,7-dimethyl-2-[6-(3-nitro-phenyl)-1H-indazol-3-yl]-5,7-dihydro-3H-imidazo[4,5-f]indol-6-one] | 25 to 1500 nM
CCN1C(=O)C(C)(C)c2cc3nc(-c4n[nH]c5ccc(-c6ccc(OC)nc6)cc45)[nH]c3cc21 [Example 24, 5-Ethyl-2-[5-(6-methoxy-pyridin-3-yl)-1H-indazol-3-yl]-7,7-dimethyl-5,7-dihydro-3H-imidazo[4,5-f]indol-6-one; compound with acetic acid] | 25 to 1500 nM
CCN1C(=O)C(C)(C)c2cc3nc(-c4n[nH]c5ccc(-c6ccsc6)cc45)[nH]c3cc21 [Example 25, 5-Ethyl-7,7-dimethyl-2-(5-thiophen-3-yl-1H-indazol-3-yl)-5,7-dihydro-3H-imidazo[4,5-f]indol-6-one; compound with acetic acid] | 25 to 1500 nM
CCN1C(=O)C(C)(C)c2cc3nc(-c4n[nH]c5ccc(-c6cnn(C)c6)cc45)[nH]c3cc21 [Example 26, 5-Ethyl-7,7-dimethyl-2-[5-(1-methyl-1H-pyrazol-4-yl)-1H-indazol-3-yl]-5,7-dihydro-3H-imidazo[4,5-f]indol-6-one; compound with acetic acid] | 25 to 1500 nM
CCN1C(=O)C(C)(C)c2cc3nc(-c4n[nH]c5ccc(-c6cccnc6)cc45)[nH]c3cc21 [Example 27, 5-Ethyl-7,7-dimethyl-2-(5-pyridin-3-yl-1H-indazol-3-yl)-5,7-dihydro-3H-imidazo[4,5-f]indol-6-one] | 25 to 1500 nM
CCN1C(=O)C(C)(C)c2cc3nc(-c4n[nH]c5cc(-c6cncnc6)ccc45)[nH]c3cc21 [Example 32, 5-Ethyl-7,7-dimethyl-2-(6-pyrimidin-5-yl-1H-indazol-3-yl)-5,7-dihydro-3H-imidazo[4,5-f]indol-6-one] | 25 to 1500 nM
CCN1C(=O)C(C)(C)c2cc3nc(-c4n[nH]c5cc(-c6ccccn6)ccc45)[nH]c3cc21 [Example 33, 5-Ethyl-7,7-dimethyl-2-(6-pyridin-2-yl-1H-indazol-3-yl)-5,7-dihydro-3H-imidazo[4,5-f]indol-6-one] | 25 to 1500 nM
CCN1C(=O)C(C)(C)c2cc3nc(-c4n[nH]c5ccc(-c6cncnc6)cc45)[nH]c3cc21 [Example 35, 5-Ethyl-7,7-dimethyl-2-(5-pyrimidin-5-yl-1H-indazol-3-yl)-5,7-dihydro-3H-imidazo[4,5-f]indol-6-one] | 25 to 1500 nM
CCN1C(=O)C(C)(C)c2cc3nc(-c4n[nH]c5cc(-c6cn[nH]c6)ccc45)[nH]c3cc21 [Example 37, 5-Ethyl-7,7-dimethyl-2-[6-(1H-pyrazol-4-yl)-1H-indazol-3-yl]-5,7-dihydro-3H-imidazo[4,5-f]indol-6-one] | 25 to 1500 nM

— patent US20090291968A1, “SUBSTITUTED INDAZOLE DERIVATIVES, THEIR MANUFACTURE AND USE AS PHARMACEUTICAL AGENTS” (priority 2006, published 2009)
